Test results: patent US9670221B2, “Furopyridines as bromodomain inhibitors” (GlaxoSmithKline Intellectual Property (No.2) Limited, priority 2013, dated 2017)
Where a name gives a salt, the structure may show the parent alone.

Biological target: T1, BRD4 BD1 (Homo sapiens, UniProt O60885, Y390A)
T1 construct: BRD4 (1-477) (Y97A) and (Y390A); made in house; host or cells: E. coli (pET15b vector)
Assay: TR-FRET binding assay, BRD4 BD1 (mutant protein)
Conditions: BRD4 (1-477) mutant, 10 nM protein, read-out: pIC50 in the BRD4 BD1 assay (converted)
Experimental: Time Resolved Fluorescence Resonance Energy Transfer (TR-FRET) Assay
Binding was assessed using a time resolved fluorescent resonance energy transfer binding assay. This utilises a 6 His purification tag at the N-terminal of the proteins as an epitope for an anti-6 His antibody labeled with Europium chelate (PerkinElmer AD0111) allowing binding of the Europium to the proteins which acts as the donor fluorophore. A small molecule, high affinity binder of the bromodomains BRD2, BRD3, BRD4 and BRDT has been labeled with Alexa Fluor647 (Reference Compound X) and this acts as the acceptor in the FRET pair.
Assay Principle: In the absence of a competing compound, excitation of the Europium causes the donor to emit at λ618 nm which excites the Alexa labelled bromodomain binding compound leading to an increased energy transfer that is measurable at λ647 […]. In the presence of a sufficient concentration of a compound that can bind these proteins, the interaction is disrupted leading to a quantifiable drop in fluorescent resonance energy transfer.
The binding of the compounds of formula (I) to Bromodomains BRD2, BRD3, BRD4 and BRDT was assessed using mutated proteins to detect differential binding to either Binding Domain 1 (BD1) or Binding Domain 2 (BD2) on the bromodomain. These single residue mutations in the acetyl lysine binding pocket greatly lower the affinity of the fluoroligand (Reference Compound X) for the mutated domain (>1000 fold selective for the non-mutated domain). Therefore in the final assay conditions, binding of the fluoroligand to the mutated domain cannot be detected and subsequently the assay is suitable to determine the binding of compounds to the single non-mutated bromodomain.
Protein production: Recombinant Human Bromodomains [(BRD2 (1-473) (Y113A) and (Y386A), BRD3 (1-435) (Y73A) and (Y348A) BRD4 (1-477) (Y97A) and (Y390A) and BRDT (1-397) (Y66A) and (Y309A)] were expressed in E. coli cells (in pET15b vector for BRD2/3/4 and in pET28a vector for BRDT) with a 6-His tag at the N-terminal. The His-tagged Bromodomain pellet was resuspended in 50 mM HEPES (pH7.5), 300 mM NaCl, 10 mM imidazole & 1 μl/mL protease inhibitor cocktail and extracted from the E. coli cells using sonication and purified using a nickel sepharose high performance column, the proteins were washed and then eluted with a linear gradient of 0-500 mM imidazole with buffer 50 mM HEPES (pH7.5), 150 mM NaCl, 500 mM imidazole, over 20 column volumes. Final purification was completed by Superdex 200 prep grade size exclusion column. Purified protein was stored at −80° C. in 20 mM HEPES pH 7.5 and 100 mM NaCl. Protein identity was confirmed by peptide mass fingerprinting and predicted molecular weight confirmed by mass spectrometry.
Protocol for Bromodomain BRD2, 3, 4 and T, BD1^+BD2 mutant assays: All assay components were dissolved in buffer composition of 50 mM HEPES pH7.4, 50 mM NaCl, 5% Glycerol, 1 mM DTT and 1 mM CHAPS. The final concentration of bromodomain proteins were 10 nM and the Alexa Fluor647 ligand was at Kd. These components were premixed and 5 μl of this reaction mixture was added to all wells containing 50 nl of various concentrations of test compound or DMSO vehicle (0.5% DMSO final) in Greiner 384 well black low volume microtitre plates and incubated in dark for 30 minutes at room temperature. 5 μl of detection mixture containing 1.5 nM final concentration anti-6His Europium chelate was added to all wells and a further dark incubation of at least 30 minutes was performed. Plates were then read on the Envision platereader, (λex=317 nm, donor λem=615 nm; acceptor λem=665 nm; Dichroic LANCE dual). Time resolved fluorescent intensity measurements were made at both emission wavelengths and the ratio of acceptor/donor was calculated and used for data analysis. All data was normalized to the mean of 16 high (inhibitor control—Example 11 of WO 2011/054846A1) and 16 low (DMSO) control wells on each plate. […]

IC50, ≤ 0.1 µM:
CC(=O)Nc1cc(-c2cn(C)c(=O)c3cc(C(C)N4CCN(S(C)(=O)=O)CC4)oc23)ccn1 (stereo not drawn) [Example 36, N-(4-(5-methyl-2-(1-(4-(methylsulfonyl)piperazin-1-yl)ethyl)-4-oxo-4,5-dihydrofuro[3,2-c]pyridin-7-yl)pyridin-2-yl)acetamide, formic acid salt]
CC(=O)Nc1cc(-c2cn(C)c(=O)c3cc(CN4CCN(S(C)(=O)=O)CC4)oc23)ccn1 [Example 37, N-(4-(5-methyl-2-((4-(methylsulfonyl)piperazin-1-yl)methyl)-4-oxo-4,5-dihydrofuro[3,2-c]pyridin-7-yl)pyridin-2-yl)acetamide]
CC(=O)Nc1cncc(-c2cn(C)c(=O)c3cc(CN4CCN(S(C)(=O)=O)C[C@H]4C)oc23)c1 [Example 38, (R)—N-(5-(5-methyl-2-((2-methyl-4-(methylsulfonyl)piperazin-1-yl)methyl)-4-oxo-4,5-dihydrofuro[3,2-c]pyridin-7-yl)pyridin-3-yl)acetamide]
Cn1cc(-c2ccncc2NCC2CC2)c2oc(CN3CCN(S(C)(=O)=O)CC3)cc2c1=O [Example 39, 7-(3-((cyclopropylmethyl)amino)pyridin-4-yl)-5-methyl-2-((4-(methylsulfonyl)piperazin-1-yl)methyl)furo[3,2-c]pyridin-4(5H)-one]
C[C@@H]1CN(S(C)(=O)=O)CCN1Cc1cc2c(=O)n(C)cc(-c3ccncc3NCC3CC3)c2o1 [Example 40, (R)-7-(3-((cyclopropylmethyl)amino)pyridin-4-yl)-5-methyl-2-((2-methyl-4-(methylsulfonyl)piperazin-1-yl)methyl)furo[3,2-c]pyridin-4(5H)-one]
C[C@@H]1CN(S(C)(=O)=O)CCN1Cc1cc2c(=O)n(C)cc(-c3ccncc3OCC3CCO3)c2o1 (stereo partly drawn) [Example 41, 5-methyl-2-(((R)-2-methyl-4-(methylsulfonyl)piperazin-1-yl)methyl)-7-(3-(oxetan-2-ylmethoxy)pyridin-4-yl)furo[3,2-c]pyridin-4(5H)-one]
C[C@@H]1CN(S(C)(=O)=O)CCN1Cc1cc2c(=O)n(C)cc(-c3ccncc3OC[C@H]3CCO3)c2o1 [Example 42, 5-methyl-2-(((R)-2-methyl-4-(methylsulfonyl)piperazin-1-yl)methyl)-7-(3-((R)-oxetan-2-ylmethoxy)pyridin-4-yl)furo[3,2-c]pyridin-4(5H)-one]
C[C@@H]1CN(S(C)(=O)=O)CCN1Cc1cc2c(=O)n(C)cc(-c3ccncc3OC[C@@H]3CCO3)c2o1 [Example 43, 5-methyl-2-(((R)-2-methyl-4-(methylsulfonyl)piperazin-1-yl)methyl)-7-(3-((S)-oxetan-2-ylmethoxy)pyridin-4-yl)furo[3,2-c]pyridin-4(5H)-one]
C[C@@H]1CN(S(C)(=O)=O)CCN1Cc1cc2c(=O)n(C)cc(-c3ncccc3OCC3CC3)c2o1 [Example 44, (R)-7-(3-(cyclopropylmethoxy)pyridin-2-yl)-5-methyl-2-((2-methyl-4-(methylsulfonyl)piperazin-1-yl)methyl)furo[3,2-c]pyridin-4(5H)-one]
C[C@@H]1CN(S(C)(=O)=O)CCN1Cc1cc2c(=O)n(C)cc(-c3ccncc3OCC3COC3)c2o1 [Example 46, (R)-5-methyl-2-((2-methyl-4-(methylsulfonyl)piperazin-1-yl)methyl)-7-(3-(oxetan-3-ylmethoxy)pyridin-4-yl)furo[3,2-c]pyridin-4(5H)-one]
CC(=O)N1CCN(Cc2cc3c(=O)n(C)cc(-c4ccnc(OCC5CCOCC5)c4)c3o2)C(C)C1 (stereo not drawn) [Example 47, 2-((4-acetyl-2-methylpiperazin-1-yl)methyl)-5-methyl-7-(2-((tetrahydro-2H-pyran-4-yl)methoxy)pyridin-4-yl)furo[3,2-c]pyridin-4(5H)-one hydrochloride]
CC(=O)Nc1cccc(-c2cn(C)c(=O)c3cc(CN4CCN(S(C)(=O)=O)CC4)oc23)c1 [Example 48, N-(3-(5-methyl-2-((4-(methylsulfonyl)piperazin-1-yl)methyl)-4-oxo-4,5-dihydrofuro[3,2-c]pyridin-7-yl)phenyl)acetamide]
C[C@@H]1CN(S(C)(=O)=O)CCN1Cc1cc2c(=O)n(C)cc(-c3cccnc3NCC3CC3)c2o1 [Example 49, (R)-7-(2-((cyclopropylmethyl)amino)pyridin-3-yl)-5-methyl-2-((2-methyl-4-(methylsulfonyl)piperazin-1-yl)methyl)furo[3,2-c]pyridin-4(5H)-one]
C[C@@H]1CN(S(C)(=O)=O)CCN1Cc1cc2c(=O)n(C)cc(-c3cccc(N)c3)c2o1 [Example 50, (R)-7-(3-aminophenyl)-5-methyl-2-((2-methyl-4-(methylsulfonyl)piperazin-1-yl)methyl)furo[3,2-c]pyridin-4(5H)-one]
CCOc1cnccc1-c1cn(C)c(=O)c2cc(CN3CCN(S(C)(=O)=O)C[C@H]3C)oc12 [Example 52, (R)-7-(3-ethoxypyridin-4-yl)-5-methyl-2-((2-methyl-4-(methylsulfonyl)piperazin-1-yl)methyl)furo[3,2-c]pyridin-4(5H)-one]
CC(=O)Nc1cccc(-c2cn(C)c(=O)c3cc(CN4CCN(S(C)(=O)=O)C[C@H]4C)oc23)n1 [Example 54, (R)-N-(6-(5-methyl-2-((2-methyl-4-(methylsulfonyl)piperazin-1-yl)methyl)-4-oxo-4,5-dihydrofuro[3,2-c]pyridin-7-yl)pyridin-2-yl)acetamide]
Cn1cc(-c2ccncc2OCC2CC2)c2oc(CN3CCCNCC3)cc2c1=O [Example 55, 2-((1,4-diazepan-1-yl)methyl)-7-(3-(cyclopropylmethoxy)pyridin-4-yl)-5-methylfuro[3,2-c]pyridin-4(5H)-one hydrochloride]
CN1CCCN(Cc2cc3c(=O)n(C)cc(-c4ccncc4OCC4CC4)c3o2)CC1 [Example 56, 7-(3-(cyclopropylmethoxy)pyridin-4-yl)-5-methyl-2-((4-methyl-1,4-diazepan-1-yl)methyl)furo[3,2-c]pyridin-4(5H)-one hydrochloride]
CN1CCCN(Cc2cc3c(=O)n(C)cc(-c4cccc(NCc5ccccn5)c4)c3o2)CC1 [Example 57, 5-methyl-2-((4-methyl-1,4-diazepan-1-yl)methyl)-7-(3-((pyridin-2-ylmethyl)amino)phenyl)furo[3,2-c]pyridin-4(5H)-one hydrochloride]
CC(C)Oc1cnccc1-c1cn(C)c(=O)c2cc(CN3CCN(S(C)(=O)=O)C[C@H]3C)oc12 [Example 58, (R)-7-(3-isopropoxypyridin-4-yl)-5-methyl-2-((2-methyl-4-(methylsulfonyl)piperazin-1-yl)methyl)furo[3,2-c]pyridin-4(5H)-one]
C[C@@H]1CN(S(C)(=O)=O)CCN1Cc1cc2c(=O)n(C)cc(-c3ccnc(N)c3)c2o1 [Example 59, (R)-7-(2-aminopyridin-4-yl)-5-methyl-2-((2-methyl-4-(methylsulfonyl)piperazin-1-yl)methyl)furo[3,2-c]pyridin-4(5H)-one]
